A short description of the assay: Antiplatelet activity as log (APA) by using artificial neural network (ANN) method. The format is functional.
`Cc1[nH]c(-c2ccccc2Cl)nc1-c1cccnc1`: the “Observed log APA” value is recorded as 0.38. As for `COC(=O)Nc1ccccc1-c1nc(C)c(-c2cccnc2)[nH]1`, the “Observed log APA” value is 1.4. In the case of `COc1ccccc1-c1nc(C)c(-c2cccnc2)[nH]1`, the “Observed log APA” value was determined as 1.1. Regarding `CCOC(=O)COc1ccccc1-c1nc(C)c(-c2cccnc2)[nH]1`, the “Observed log APA” value was found to be 0.6. Turning to `Cc1[nH]c(-c2ccccc2N)nc1-c1cccnc1`, the “Observed log APA” value came out at 0.8. `CCOc1ccccc1-c1nc(C)c(-c2cccnc2)[nH]1`: the “Observed log APA” value was 1.1.

For the compound `Cc1[nH]c(-c2ccccc2F)nc1-c1cccnc1`, the “Observed log APA” value turned out to be 1.4. In the case of `CNC(=O)Nc1ccccc1-c1nc(C)c(-c2cccnc2)[nH]1`, the “Observed log APA” value was determined as 1.1. Consider `COc1c(-c2nc(C)c(-c3cccnc3)[nH]2)ccc2[nH]c(C)nc12`, for which the “Observed log APA” value was 0.72. The same measure for `COc1cc2c(cc1-c1nc(C)c(-c3cccnc3)[nH]1)nc(O)n2C`: 0.57; for `COc1cc2[nH]c(C)nc2cc1-c1nc(C)c(-c2cccnc2)[nH]1`: 0.83.

Regarding `COc1c(-c2nc(C)c(-c3cccnc3)[nH]2)cc2nc(C)[nH]c2c1Cl`, the “Observed log APA” value is 1.4. Take `COc1c(-c2nc(C)c(-c3cccnc3)[nH]2)cc(Cl)c2[nH]c(CCC(=O)O)nc12`: the “Observed log APA” value worked out at 0.4. In the case of `COc1c(-c2nc(C)c(-c3cccnc3)[nH]2)cc(Cl)c2[nH]c(C)nc12`, the “Observed log APA” value is 1.3. Regarding `COc1cc(NC(C)=O)c(Cl)cc1-c1nc(C)c(-c2cccnc2)[nH]1`, the “Observed log APA” value was found to be 1.4.

With `COc1c(-c2nc(C)c(-c3cccnc3)[nH]2)cc2nc(O)[nH]c2c1Cl`, the “Observed log APA” value was 0.79. As for `COc1cc(OC)c(-c2nc(C)c(-c3cccnc3)[nH]2)cc1NC(C)=O`, the “Observed log APA” value stood at 0.93. With `Cc1nc2cc(-c3nc(C)c(-c4cccnc4)[nH]3)c(C)cc2[nH]1`, the “Observed log APA” value is listed as 0.74. The same measure for `COc1cc(NC(C)=O)c([N+](=O)[O-])cc1-c1nc(C)c(-c2cccnc2)[nH]1`: 1.5. Turning to `Cc1ccccc1-c1nc(C)c(-c2cccnc2)[nH]1`, the “Observed log APA” value worked out at 0.18.

As for `Cc1nc2cc(Cl)c(-c3nc(C)c(-c4cccnc4)[nH]3)cc2[nH]1`, the “Observed log APA” value was 0.68. Turning to `CSc1ccccc1-c1nc(C)c(-c2cccnc2)[nH]1`, the “Observed log APA” value is recorded as 0.95.

The values are drawn from ChEMBL document CHEMBL1130295, “A QSAR study of antiplatelet agents using artificial neural network - correlation with micelle-water partition coefficient” (1997).
